The results in this text go back to US20070293491A1, “INDAZOLE COMPOUNDS AND METHODS FOR INHIBITION OF CDC7” (NOVARTIS VACCINES AND DIAGNOSTICS, INC., priority 2006, published 2007).

Each structure is given as a SMILES string.

Sequence of cdc7/dbf4 (O00311 whole entry): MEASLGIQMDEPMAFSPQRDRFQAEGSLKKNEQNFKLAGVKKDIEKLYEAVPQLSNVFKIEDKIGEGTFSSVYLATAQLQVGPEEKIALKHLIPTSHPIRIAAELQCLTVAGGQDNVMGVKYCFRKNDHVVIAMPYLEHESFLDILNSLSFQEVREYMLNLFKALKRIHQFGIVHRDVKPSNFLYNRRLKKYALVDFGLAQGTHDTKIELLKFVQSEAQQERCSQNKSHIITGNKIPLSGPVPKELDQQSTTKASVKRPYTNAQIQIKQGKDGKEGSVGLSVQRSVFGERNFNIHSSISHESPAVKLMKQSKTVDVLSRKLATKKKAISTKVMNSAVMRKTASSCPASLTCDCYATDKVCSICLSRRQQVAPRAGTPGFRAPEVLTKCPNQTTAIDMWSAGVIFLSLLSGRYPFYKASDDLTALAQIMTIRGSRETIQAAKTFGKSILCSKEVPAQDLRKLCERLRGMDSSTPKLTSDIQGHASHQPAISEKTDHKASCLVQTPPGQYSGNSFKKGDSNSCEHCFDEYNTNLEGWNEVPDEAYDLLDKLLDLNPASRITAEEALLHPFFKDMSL
Sequence of cdc7/dbf4 (Q9UBU7 whole entry partner): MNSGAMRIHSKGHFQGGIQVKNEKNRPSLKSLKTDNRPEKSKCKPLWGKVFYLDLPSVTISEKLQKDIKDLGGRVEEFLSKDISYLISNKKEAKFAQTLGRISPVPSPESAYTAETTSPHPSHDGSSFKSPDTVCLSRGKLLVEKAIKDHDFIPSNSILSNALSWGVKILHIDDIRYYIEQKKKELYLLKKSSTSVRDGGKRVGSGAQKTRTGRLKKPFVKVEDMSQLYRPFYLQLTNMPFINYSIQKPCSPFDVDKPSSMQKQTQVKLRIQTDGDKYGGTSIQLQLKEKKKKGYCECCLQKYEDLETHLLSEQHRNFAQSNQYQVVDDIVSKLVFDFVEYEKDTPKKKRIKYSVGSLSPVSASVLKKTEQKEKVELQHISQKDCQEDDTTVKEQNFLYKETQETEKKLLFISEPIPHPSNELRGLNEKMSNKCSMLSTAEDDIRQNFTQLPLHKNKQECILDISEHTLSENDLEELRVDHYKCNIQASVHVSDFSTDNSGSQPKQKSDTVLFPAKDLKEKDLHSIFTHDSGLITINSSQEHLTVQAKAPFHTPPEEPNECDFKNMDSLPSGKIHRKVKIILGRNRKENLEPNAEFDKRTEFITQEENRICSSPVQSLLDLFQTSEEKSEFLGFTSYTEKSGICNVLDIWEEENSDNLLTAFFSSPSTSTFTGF

One assay addresses cdc7/dbf4 (Homo sapiens, UniProt O00311). The experiment in a line: In vitro assay of CDC7/DBF4 inhibition (phosphoserine 108-MCM-2 detection, donor/acceptor beads). It is filed as biochemical. To be noted: Test Concentration 0.93 μM; 0.5 μM ATP solution, MCM-2 substrate, 1 hr room temperature. On the procedure:
A 20.5 μL kinase reaction was performed on OptiPlate-384 plates PerkinElmer, 6007290) as follows by sequential addition of: 0.5 μL of test compounds of the invention in DMSO, 10 μL 0.5 μM ATP in reaction buffer, 10 μL 2.2 nM cdc7/dbf4 baculovirus derived), 4.4 nM MCM-2 in a reaction buffer. The reaction proceeded for 1 hr at room temperature on an orbital shaker. The reaction was terminated by addition of 10 μL detection buffer containing Streptavidin-coated donor beads and Protein A conjugated acceptor beads (54 μg/ml), and 1:4000 diluted rabbit antibody against phosphoserine 108-MCM-2 (Bethyl Labs). The mixture was incubated at room temperature for 4 hrs in the dark. The plate was then read on a PerkinElmer Fusion instrument. The reaction buffer contained 50 mM Hepes (pH 7.2-7.5), 10 mM MgCl2, 1 mM dithiothreitol (DTT), leupeptin (10 μg/ml), and bovine serum albumin (BSA) (0.2 mg/ml). The detection buffer contained 25 mM Tris (pH 7.5), 400 mM NaCl, 100mM EDTA, 0.3% BSA, and 0.05% Tween 20.
Representative compounds of the invention which inhibited the kinase reaction >70% in the above cdc7/db4 assay were selected for further analysis and confirmation. Test compounds were diluted in DMSO to a concentration of 0.93 μM or 1.39 μM and 0.5 μL of each test solution was added to wells for assay using the assay conditions and methods as described above.
`O=c1nc(-c2ccc3[nH]ncc3c2)cc(-c2cccc(Cl)c2)[nH]1` [Example 10, 6-(3-chlorophenyl)-4-(1H-indazol-5-yl)pyrimidin-2(1H)-one] returned an inhibition at 0.93 µM (stock) of 98%.
Same read-out and setting: for `O=c1nc(-c2ccc3[nH]ncc3c2)cc(-c2ccc(OCc3ccccc3)cc2)[nH]1` [Example 15, 6-[4-(benzyloxy)phenyl]-4-(1H-indazol-5-yl)pyrimidin-2(1H)-one] the value was 58%.
The same measure, in the same setting: for `O=c1nc(-c2ccc3[nH]ncc3c2)cc(-c2cccc(F)c2)[nH]1` [Example 2, 6-(3-fluorophenyl)-4-(1H-indazol-5-yl)pyrimidin-2(1H)-one] the value was 82%; for `O=c1nc(-c2ccc3[nH]ncc3c2)cc(-c2ccccc2F)[nH]1` [Example 9, 6-(2-fluorophenyl)-4-(1H-indazol-5-yl)pyrimidin-2(1H)-one], 87%.
On to `COc1ccc(OC)c(-c2cc(-c3ccc4[nH]ncc4c3)nc(=O)[nH]2)c1` [Example 4, 6-(2,5-dimethoxyphenyl)-4-(1H-indazol-5-yl)pyrimidin-2(1H)-one], for which the inhibition at 0.93 µM (stock) came out at 94%.
Same read-out and setting: for `O=c1nc(-c2ccc3[nH]ncc3c2)cc(-c2ccc(N3CCNCC3)cc2)[nH]1` [Example 16, 4-(1H-indazol-5-yl)-6-(4-piperazin-1-ylphenyl)pyrimidin-2(1H)-one] the value was 94%; for `COc1ccc(-c2cc(-c3ccc4[nH]ncc4c3)nc(=O)[nH]2)cc1OC` [Example 7, 6-(3,4-dimethoxyphenyl)-4-(1H-indazol-5-yl)pyrimidin-2(1H)-one], 62%.
On the same count and under the same terms, for `COc1ccc(-c2cc(-c3ccc4[nH]ncc4c3)nc(=O)[nH]2)cc1F` [Example 5, 6-(3-fluoro-4-methoxyphenyl)-4-(1H-indazol-5-yl)pyrimidin-2(1H)-one] the value was 75%.
`O=c1nc(-c2ccc3[nH]ncc3c2)cc(-c2cccc(C(F)(F)F)c2)[nH]1` [Example 8, 4-(1H-indazol-5-yl)-6-[3-(trifluoromethyl)phenyl]pyrimidin-2(1H)-one] displayed an inhibition at 0.93 µM (stock) of 55%.
Same read-out and setting: for `CCc1ccc(-c2cc(-c3ccc4[nH]ncc4c3)nc(=O)[nH]2)cc1` [Example 6, 6-(4-ethylphenyl)-4-(1H-indazol-5-yl)pyrimidin-2(1H)-one] the value was 83%.
Same read-out and setting: for `COc1ccc(-c2cc(-c3ccc4[nH]ncc4c3)nc(=O)[nH]2)c(F)c1` [Example 3, 6-(2-fluoro-4-methoxyphenyl)-4-(1H-indazol-5-yl)pyrimidin-2(1H)-one] the value was 81%.

Staying with this assay, now noted: Test Concentration 1.39 μM; 0.5 μM ATP solution, MCM-2 substrate, 1 hr room temperature.
Molecule `O=c1nc(-c2ccc3[nH]ncc3c2)cc(-c2ccc(N3CCOCC3)cc2)[nH]1` [Example 13, 4-(1H-indazol-5-yl)-6-(4-morpholin-4-ylphenyl)pyrimidin-2(1H)-one] showed an inhibition at 1.39 µM (stock) of 92%.
`O=c1nc(-c2ccc3[nH]ncc3c2)cc(-c2ccc(Oc3ccccc3)cc2)[nH]1` [Example 14, 4-(1H-indazol-5-yl)-6-(4-phenoxyphenyl)pyrimidin-2(1H)-one]: the inhibition at 1.39 µM (stock) was determined as 84%.
Same read-out and setting: for `O=c1nc(-c2ccc3[nH]ncc3c2)cc(-c2cccc(OCc3ccccc3)c2)[nH]1` [Example 12, 6-[3-(benzyloxy)phenyl]-4-(1H-indazol-5-yl)pyrimidin-2(1H)-one] the value was 98%.
The same measure, in the same setting: for `O=c1nc(-c2ccc3[nH]ncc3c2)cc(-c2ccccc2)[nH]1` [Example 11, 4-(1H-indazol-5-yl)-6-phenylpyrimidin-2(1H)-one] the value was 98%.

What is called inhibition is the drop in the measured response relative to a control, in per cent. A higher inhibition goes with a response far below the control.
